Laboratory results from patent US20250352600A1, “DIETARY SUPPLEMENTS FOR BRAIN HEALTH” (Melaleuca, Inc., priority 2024, published 2025).

Experiments:
Assay type in all cases: in vivo, human
[1] = Moderate-Caffeine User Follow-Up, Profile of Mood States (POMS) survey; set-up: Fatigue / Vigor / Confusion / TMD / Tension / Esteem-related Affect: scale not given here; conditions: moderate-caffeine users; for TMD: total mood disturbance
Source text: (§1) The study included subjective tests (POMS and product questions) only. […] There were 7 male and 6 female participants with an average age of 39.5 years.

[2] = Low-Caffeine User Clinical Study, Profile of Mood States (POMS) survey; conditions: low-caffeine users
Source text: This study included subjective (POMS and product questions) and objective (CNSVS) tests.

[3] = Moderate-Caffeine User Follow-Up, product questions (statement agreement)
Source text: as §1

[4] = Moderate-Dose Caffeine Cohort (mean 338 mg/d), n = 12-13
[5] = Statement Agreement, Moderate-Dose Caffeine Cohort (mean 338 mg/d), n = 12-13

For Cn1c(=O)c2c(ncn2C)n(C)c1=O [Caffeine, caffeine], the Confusion ([1]; n = 12-13, Post) was 1.17 ± 2.92, the Depression ([1]; n = 12-13, Post) was 1.17 ± 4.04 and the “Esteem-related Affect” value ([1]; n = 12-13, Post) was 15.92 ± 3.15. The Fatigue ([1]; n = 12-13, Post) was 2.25 ± 3.02, the Tension ([1]; n = 12-13, Post) was 1.83 ± 3.54 and the Fatigue ([1]; n = 12-13, Post, listed as caffeine) was “did not relieve”. For the same compound, the Confusion ([1]; n = 12-13, Pre) was 2.25 ± 2.38, the Depression ([1]; n = 12-13, Pre) was 1.50 ± 3.45 and the “Esteem-related Affect” value ([1]; n = 12-13, Pre) was 14.42 ± 3.23. It also gave a Fatigue ([1]; n = 12-13, Pre) of 5.58 ± 4.70, a Tension ([1]; n = 12-13, Pre) of 3.00 ± 2.73 and a Vigor ([1]; n = 12-13, Pre) of 4.25 ± 2.93. It also gave a TMD ([1]; n = 12-13, Post) of −17.17 ± 17.69, a TMD ([1]; n = 12-13, Pre) of −4.92 ± 13.92 and an Anger ([2]; n = 30, Post) of 0.90. The Confusion ([2]; n = 30, Post) was 1.20, the Depression ([2]; n = 30, Post) was 0.60 and the “Esteem-related Affect” value ([2]; n = 30, Post) was 14.63. For the same compound, the Fatigue ([2]; n = 30, Post) was 2.77, the Tension ([2]; n = 30, Post) was 2.80 and the Vigor ([2]; n = 30, Post) was 7.27. For the same compound, the Anger ([2]; n = 30, Pre) was 1.55, the Confusion ([2]; n = 30, Pre) was 2.93 and the Depression ([2]; n = 30, Pre) was 1.79. The “Esteem-related Affect” value ([2]; n = 30, Pre) was 13.59, the Fatigue ([2]; n = 30, Pre) was 5.66 and the Tension ([2]; n = 30, Pre) was 4.48. The Vigor ([2]; n = 30, Pre) was 5.69, the TMD ([2]; total mood disturbance, n = 30, Post) was −13.63 and the “I am in a better mood after having taken the product, % Top 2 Box” value [3, 4] was 42%. For the same compound, the “I had no trouble recalling [things] after taking the product, % Top 2 Box” value [3, 4] was 58%, the “I was better able to focus after taking the product, % Top 2 Box” value [3, 4] was 58% and the “I was more alert after taking the product, % Top 2 Box” value [3, 4] was 58%. For the same compound, the “The product enhanced my ability to pay attention, % Top 2 Box” value [3, 4] was 58%, the “The product improved my energy levels, % Top 2 Box” value [3, 4] was 67% and the “I am in a better mood after having taken the product, Scores” value [3, 5] was 3.33. For the same compound, the “I had no trouble recalling [things] after taking the product, Scores” value [3, 5] was 3.67, the “I was better able to focus after taking the product, Scores” value [3, 5] was 3.25 and the “I was more alert after taking the product, Scores” value [3, 5] was 3.67. The “The product enhanced my ability to pay attention, Scores” value [3, 5] was 3.50, the “The product improved my energy levels, Scores” value [3, 5] was 3.75 and the “performance of treatment arms among those with moderate caffeine intake” value ([3]; moderate-caffeine users) was “performed better”.
